Laboratory results taken from patent US20230272029A1, “CO-AGONISTS AT GLP-1 AND GIP RECEPTORS SUITABLE FOR ORAL DELIVERY” (Novo Nordisk A/S, priority 2020, published 2023).
Starred links: 1 amine or outer side, 2 acyl side, 3 side chain; linkers in the order of their positions; H or OH if unused. Non-standard residues stand in square brackets, D forms with d. Residues, ends and D or L forms follow the SMILES beside them. Groups on a side chain read outwards from the residue. *: point of attachment. C20 diacid = O=C(O)CCCCCCCCCCCCCCCCCCC(=O)*; C18 diacid = O=C(O)CCCCCCCCCCCCCCCCC(=O)*; γGlu = O=C(O)[C@H](CCC(=O)[*:2])N[*:1]; εLys = N[C@@H](CCCCN[*:1])C(=O)[*:2]; AEEA = NCCOCCOCC(=O)O; Aib = CC(C)(N)C(=O)O

Assay: Pharmacokinetic study in dogs after oral dosing of tablets with SNAC
Type: in vivo, Beagle dogs
Experimental: The purpose of this example is to determine the half-life and plasma exposure in vivo of the compounds of the present invention after p.o. administration to beagle dogs, i.e. the terminal half-life and concentration of test substance that reaches circulation with time. This is done in a pharmacokinetic (PK) study, where these parameters of the compound in question are determined. By terminal half-life is generally meant the period of time it takes to halve a certain plasma concentration, measured after the initial distribution phase.
The amount of SNAC in the tablet composition was 100-300 mg, the amount of magnesium stearate in the tablet composition was 7.7 mg, and the target amount of each test substance in the tablet composition was 3-4 mg.
Male beagle dogs, 1-7 years of age and weighing 9-17 kg during the study period, were included in the study. The dogs were dosed in a fasting state. The dogs were group housed in pens (12 hours light: 12 hours dark), and fed individually and restrictedly once daily with Royal Canin Medium Adult dog food (Royal Canin Products, China Branch, or Brogaarden A/S, Denmark). The dogs were used for repeated PK studies with a suitable wash-out period between successive dosing. An appropriate acclimatization period was given prior to initiation of the first PK study. All handling, dosing, and blood sampling of the animals were performed by trained and skilled staff. Before the studies, the dogs were fasted overnight and from 0 to 4 hours after dosing. The dogs were restricted to water 1 hour before dosing until 4 hours after dosing, but otherwise had ad libitum access to water during the whole period.
The compositions were administered by a single oral dosing to the dogs in groups of 6-8 dogs. […] The mouth was then closed, and 10 mL of tap water was given by syringe or gavage to facilitate swallowing of the tablet.
For each blood sample time point, approximately 0.8 mL of whole blood was collected in a 1.5 mL EDTA-coated tube, which was gently turned to mix the sample with EDTA. Blood samples were collected in EDTA buffer (8 mM) and then centrifuged at 4° C. and 2000g for 10 minutes. Plasma was pipetted into Micronic tubes on dry ice, and kept at −20° C. or lower until analysis. Blood samples were taken as appropriate, for example from a venflon in the cephalic vein in the front leg for the first 2 hours and then with syringe from the jugular vein for the rest of the time points. The first few drops were allowed to drain from the venflon to avoid heparin saline from the venflon in the sample.
All blood samples were collected into test tubes containing EDTA for stabilisation and kept on ice until centrifugation. Plasma was separated from whole blood by centrifugation and the plasma was stored at −20° C. or lower until analysis.
The plasma was analysed for test substance using LC-MS (Liquid Chromatography-Mass Spectrometry) as known to the person skilled in the art. […] RP-HPLC separation was achieved using a linear gradient of 1:1 acetonitrile/methanol in 1% aqueous formic acid using either: a Phenomenex Onyx Monolithic C18 column (50×2.0 mm) and a flow rate of 0.8 mL/min at 30° C.; or an Agilent Poroshell 120 SB-C18 column (50×2.1 mm, 2.7 μm) at a flow rate of 0.4 mL/min at 60° C. The mass spectrometer was operated in either positive ionization SIM mode or positive ionization PRM mode.
For each individual animal, a plasma concentration-time profile was analysed by a non-compartmental model in Pharsight Phoenix WinNonLin ver. 6.4 software or other relevant software for PK analysis, and the resulting terminal half-life (t1/2), maximum plasma concentration per dose (Cmax/D), time for maximum plasma concentration (tmax), and area under the curve to infinity per dose (AUC/D) were determined. Summary statistics of pharmacokinetic results were presented as median (for tmax), harmonic mean ([…]), or arithmetic mean (Cmax, AUC).

Compound | Cmax/Dose (dog, in vivo, po) [kg/L] | AUC/Dose (dog, in vivo, po) [kg·h/L] | Cmax/Dose (oral tablet, 100 mg SNAC, 3 mg test substance, Beagle dogs, arithmetic mean) [kg/L]
CC[C@H](C)[C@H](NC(=O)[C@H](Cc1ccccc1)NC(=O)[C@H](CCC(=O)O)NC(=O)[C@H](CCCNC(=N)N)NC(=O)[C@H](C)NC(=O)[C@H](C)NC(=O)[C@H](CCC(N)=O)NC(=O)[C@H](CCCCNC(=O)[C@@H](N)CCCCNC(=O)[C@@H](N)CCCCNC(=O)CC[C@H](NC(=O)CCCCCCCCCCCCCCCCC(=O)O)C(=O)O)NC(=O)[C@H](CCC(=O)O)NC(=O)[C@H](CC(C)C)NC(=O)[C@H](Cc1ccc(O)cc1)NC(=O)[C@@H](NC(=O)[C@H](CO)NC(=O)[C@H](Cc1ccc(O)cc1)NC(=O)[C@H](CC(=O)O)NC(=O)[C@H](CO)NC(=O)[C@@H](NC(=O)[C@H](Cc1ccccc1)NC(=O)[C@@H](NC(=O)CNC(=O)[C@H](CCC(=O)O)NC(=O)C(C)(C)NC(=O)[C@@H](N)Cc1ccc(O)cc1)[C@@H](C)O)[C@@H](C)O)[C@@H](C)CC)C(=O)N[C@@H](CCC(=O)O)C(=O)N[C@@H](Cc1c[nH]c2ccccc12)C(=O)N[C@@H](CC(C)C)C(=O)N[C@@H](CC(C)C)C(=O)N[C@@H](C)C(=O)NCC(=O)NCC(=O)N1CCC[C@H]1C(=O)N[C@@H](CO)C(=O)N[C@@H](CO)C(=O)NCC(=O)N[C@@H](C)C(=O)N1CCC[C@H]1C(=O)N1CCC[C@H]1C(=O)N1CCC[C@H]1C(=O)N[C@@H](CO)C(=O)O [Compound No. 9] (H-Y[Aib]EGTFTSDYSIYLEK([εLys-εLys-γGlu-C18 diacid])QAAREFIEWLLAGGPSSGAPPPS-OH) | 0.24 | – | –
CC[C@H](C)[C@H](NC(=O)[C@H](Cc1ccccc1)NC(=O)[C@H](CCC(=O)O)NC(=O)[C@H](CCCNC(=N)N)NC(=O)[C@H](C)NC(=O)[C@H](C)NC(=O)[C@H](CCC(N)=O)NC(=O)[C@H](CCCCNC(=O)COCCOCCNC(=O)COCCOCCNC(=O)CC[C@H](NC(=O)CCCCCCCCCCCCCCCCC(=O)O)C(=O)O)NC(=O)[C@H](CCC(=O)O)NC(=O)[C@H](CC(C)C)NC(=O)[C@H](Cc1ccc(O)cc1)NC(=O)[C@@H](NC(=O)[C@H](CO)NC(=O)[C@H](Cc1ccc(O)cc1)NC(=O)[C@H](CC(=O)O)NC(=O)[C@H](CO)NC(=O)[C@@H](NC(=O)[C@H](Cc1ccccc1)NC(=O)[C@@H](NC(=O)CNC(=O)[C@H](CCC(=O)O)NC(=O)C(C)(C)NC(=O)[C@@H](N)Cc1ccc(O)cc1)[C@@H](C)O)[C@@H](C)O)[C@@H](C)CC)C(=O)N[C@@H](CCC(=O)O)C(=O)N[C@@H](Cc1c[nH]c2ccccc12)C(=O)N[C@@H](CC(C)C)C(=O)N[C@@H](CC(C)C)C(=O)N[C@@H](C)C(=O)NCC(=O)NCC(=O)N1CCC[C@H]1C(=O)N[C@@H](CO)C(=O)N[C@@H](CO)C(=O)NCC(=O)N[C@@H](C)C(=O)N1CCC[C@H]1C(=O)N1CCC[C@H]1C(=O)N1CCC[C@H]1C(=O)N[C@@H](CO)C(=O)O [Compound No. 10] (H-Y[Aib]EGTFTSDYSIYLEK([AEEA-AEEA-γGlu-C18 diacid])QAAREFIEWLLAGGPSSGAPPPS-OH) | 0.20 | 8.4 | –
CC[C@H](C)[C@H](NC(=O)[C@H](Cc1ccccc1)NC(=O)[C@H](CCC(=O)O)NC(=O)[C@H](CCCNC(=N)N)NC(=O)[C@H](C)NC(=O)[C@H](C)NC(=O)[C@H](CCC(N)=O)NC(=O)[C@H](CCCCNC(=O)[C@@H](N)CCCCNC(=O)[C@@H](N)CCCCNC(=O)CC[C@H](NC(=O)CCCCCCCCCCCCCCCCC(=O)O)C(=O)O)NC(=O)[C@H](CCC(=O)O)NC(=O)[C@H](CC(C)C)NC(=O)[C@H](Cc1ccc(O)cc1)NC(=O)[C@@H](NC(=O)[C@H](CO)NC(=O)[C@H](Cc1ccc(O)cc1)NC(=O)[C@H](CC(=O)O)NC(=O)[C@H](CO)NC(=O)[C@@H](NC(=O)[C@H](Cc1ccccc1)NC(=O)[C@@H](NC(=O)CNC(=O)[C@H](CCC(=O)O)NC(=O)C(C)(C)NC(=O)[C@@H](N)Cc1ccc(O)cc1)[C@@H](C)O)[C@@H](C)O)[C@@H](C)CC)C(=O)N[C@@H](CC(N)=O)C(=O)N[C@@H](Cc1c[nH]c2ccccc12)C(=O)N[C@@H](CC(C)C)C(=O)N[C@@H](CC(C)C)C(=O)N[C@@H](C)C(=O)NCC(=O)NCC(=O)N1CCC[C@H]1C(=O)N[C@@H](CO)C(=O)N[C@@H](CO)C(=O)NCC(=O)N[C@@H](C)C(=O)N1CCC[C@H]1C(=O)N1CCC[C@H]1C(=O)N1CCC[C@H]1C(=O)N[C@@H](CO)C(=O)O [Compound No. 11] (H-Y[Aib]EGTFTSDYSIYLEK([εLys-εLys-γGlu-C18 diacid])QAAREFINWLLAGGPSSGAPPPS-OH) | 0.19 | 7.1 | –
CC[C@H](C)[C@H](NC(=O)[C@H](Cc1ccccc1)NC(=O)[C@H](CCC(=O)O)NC(=O)[C@H](CCCNC(=N)N)NC(=O)[C@H](C)NC(=O)[C@H](C)NC(=O)[C@H](CCC(N)=O)NC(=O)[C@H](CCCCNC(=O)[C@@H](N)CCCCNC(=O)[C@@H](N)CCCCNC(=O)CC[C@H](NC(=O)CCCCCCCCCCCCCCCCC(=O)O)C(=O)O)NC(=O)[C@H](CCC(=O)O)NC(=O)[C@H](CC(C)C)NC(=O)[C@H](Cc1ccc(O)cc1)NC(=O)[C@@H](NC(=O)[C@H](CO)NC(=O)[C@H](Cc1ccc(O)cc1)NC(=O)[C@H](CC(=O)O)NC(=O)[C@H](CO)NC(=O)[C@@H](NC(=O)[C@H](Cc1ccccc1)NC(=O)[C@@H](NC(=O)CNC(=O)[C@H](CCC(=O)O)NC(=O)C(C)(C)NC(=O)[C@@H](N)Cc1ccc(O)cc1)[C@@H](C)O)[C@@H](C)O)[C@@H](C)CC)C(=O)N[C@@H](CCC(=O)O)C(=O)N[C@@H](Cc1c[nH]c2ccccc12)C(=O)N[C@@H](CC(C)C)C(=O)N[C@@H](CC(C)C)C(=O)N[C@@H](CCCNC(=N)N)C(=O)NCC(=O)NCC(=O)N1CCC[C@H]1C(=O)N[C@@H](CCC(=O)O)C(=O)N[C@@H](CO)C(=O)NCC(=O)N[C@@H](C)C(=O)N1CCC[C@H]1C(=O)N1CCC[C@H]1C(=O)N1CCC[C@H]1C(=O)N[C@@H](CO)C(=O)O [Compound No. 13] (H-Y[Aib]EGTFTSDYSIYLEK([εLys-εLys-γGlu-C18 diacid])QAAREFIEWLLRGGPESGAPPPS-OH) | – | – | 0.29
CC[C@H](C)[C@H](NC(=O)[C@H](Cc1ccccc1)NC(=O)[C@H](CCC(=O)O)NC(=O)[C@H](CCCNC(=N)N)NC(=O)[C@H](C)NC(=O)[C@H](C)NC(=O)[C@H](CCC(N)=O)NC(=O)[C@H](CCCCNC(=O)[C@@H](N)CCCCNC(=O)[C@@H](N)CCCCNC(=O)CC[C@H](NC(=O)CCCCCCCCCCCCCCCCCCC(=O)O)C(=O)O)NC(=O)[C@H](CCC(=O)O)NC(=O)[C@H](CC(C)C)NC(=O)[C@H](Cc1ccc(O)cc1)NC(=O)[C@@H](NC(=O)[C@H](CO)NC(=O)[C@H](Cc1ccc(O)cc1)NC(=O)[C@H](CC(=O)O)NC(=O)[C@H](CO)NC(=O)[C@@H](NC(=O)[C@H](Cc1ccccc1)NC(=O)[C@@H](NC(=O)CNC(=O)[C@H](CCC(=O)O)NC(=O)C(C)(C)NC(=O)[C@@H](N)Cc1ccc(O)cc1)[C@@H](C)O)[C@@H](C)O)[C@@H](C)CC)C(=O)N[C@@H](CC(N)=O)C(=O)N[C@@H](Cc1c[nH]c2ccccc12)C(=O)N[C@@H](CC(C)C)C(=O)N[C@@H](CC(C)C)C(=O)N[C@@H](C)C(=O)NCC(=O)NCC(=O)N1CCC[C@H]1C(=O)N[C@@H](CO)C(=O)N[C@@H](CO)C(=O)NCC(=O)N[C@@H](C)C(=O)N1CCC[C@H]1C(=O)N1CCC[C@H]1C(=O)N1CCC[C@H]1C(=O)N[C@@H](CO)C(=O)O [Compound No. 16] (H-Y[Aib]EGTFTSDYSIYLEK([εLys-εLys-γGlu-C20 diacid])QAAREFINWLLAGGPSSGAPPPS-OH) | 0.21 | 8.6 | –
